According to the Biogen ADME set (Fang et al. 2023):
Values after ≈ are worked out from the molar mass of the structure shown.

Conditions: for aqueous solubility: pH 6.8

MDR1-MDCK efflux ratio	intrinsic clearance, human liver microsomes	intrinsic clearance, rat liver microsomes	aqueous solubility	fraction unbound, human plasma	fraction unbound, rat plasma	SMILES
	≤ 4.74 mL/min/kg	≤ 10.7 mL/min/kg				c1ccc(-c2noc(C3CCNCC3)n2)nc1
15	≤ 4.74 mL/min/kg	27.4 mL/min/kg				N#Cc1cnc2cc(F)cc(F)c2c1NC1CCN(CC(N)=O)CC1
29.1	≤ 4.74 mL/min/kg	≤ 10.7 mL/min/kg				Cc1cc(C(=O)N2CCN(C(=O)C3CCC3)CC2)c(O)cn1
1.91	8.76 mL/min/kg	109 mL/min/kg	25.8 µg/mL (≈ 74.8 µM)			O=C(Nc1ccc(N2CCOCC2)nc1)N1CCc2sccc2C1
30.4	10.1 mL/min/kg	74.2 mL/min/kg	55.8 µg/mL (≈ 166 µM)			CC(=O)N1CCN(CCNC(=O)N2CCc3sccc3C2)CC1
0.69	27.6 mL/min/kg	600 mL/min/kg	42.1 µg/mL (≈ 161 µM)			O=C(NCCc1ccc2c(c1)OCO2)C1CCCC1
0.737			0.54 µg/mL (≈ 1.56 µM)			O=C1/C(=C2/CCCCCN2)C(Nc2ccccc2)=NN1c1ccccc1
0.503	92.6 mL/min/kg	177 mL/min/kg	41.2 µg/mL (≈ 177 µM)			Cc1cc(C)nc(NC(=O)N(C)C2CCC2)c1
0.764	≤ 4.74 mL/min/kg	46.9 mL/min/kg	51.2 µg/mL (≈ 158 µM)			O=C(CC1CCN(c2ncc(Cl)cn2)CC1)N1CCOCC1
16.5	≤ 4.74 mL/min/kg	≤ 10.7 mL/min/kg	41.4 µg/mL (≈ 167 µM)			Cc1nc(O)cc(C2CN(C3CCCCC3)C2)n1
1.59	34.8 mL/min/kg	377 mL/min/kg	17.2 µg/mL (≈ 54 µM)			Cc1sc2ncnc(OCC(=O)NC3CCCCC3)c2c1C
0.563	11.8 mL/min/kg	421 mL/min/kg	4.2 µg/mL (≈ 14.6 µM)			CCCCOc1ccc(C(=O)NCc2cc(C)on2)cc1
25.4	≤ 4.74 mL/min/kg	≤ 10.7 mL/min/kg	37.2 µg/mL (≈ 113 µM)			CCN1CCC(CNC(=O)c2cc(C)nc3cc(F)ccc23)CC1
0.683	126 mL/min/kg	445 mL/min/kg	34.9 µg/mL (≈ 88.4 µM)			O=C(c1ccccc1)N1CCN(C(=O)c2ccc(-c3ccccc3Cl)o2)CC1
0.136			0.29 µg/mL (≈ 1.06 µM)			Cc1ccsc1C(=O)Nc1nc2ccccc2s1
2.89	≤ 4.74 mL/min/kg	34.5 mL/min/kg				O=S(=O)(NC[C@H]1CCCN1)c1ccc(OC(F)F)cc1
0.768	21.9 mL/min/kg	264 mL/min/kg	37.9 µg/mL (≈ 130 µM)			CCOCC(=O)NCc1cc(C2CC2)n(C2CCCC2)n1
	≤ 4.74 mL/min/kg			0.492	0.696	CC(C)(C)OC(=O)N1CCCC1C(=O)N1CCC(C(=O)N[C@@H](Cc2c[nH]c3ccccc23)C(=O)O)CC1 (stereo partly specified)
0.516	21.8 mL/min/kg	145 mL/min/kg				Cc1noc(C)c1-c1cc(-c2ccccc2Cl)nc(C2CC2)n1
1.44	13.2 mL/min/kg	477 mL/min/kg	6.78 µg/mL (≈ 23 µM)			O=C(Nc1nccs1)c1c2c(nc3ccccc13)CCC2
9.81	562 mL/min/kg	2270 mL/min/kg				Cc1cc(Nc2ccc(F)cn2)cc(C2CCN(C(=O)CCc3cccc(Cl)c3)C2)n1 (stereo unspecified)
22.4			5.79 µg/mL (≈ 15 µM)			O=C(Cn1nc2n(c1=O)-c1ccccc1C1=NCCN12)N1CCc2ccccc21
	6.28 mL/min/kg	126 mL/min/kg	29.3 µg/mL (≈ 119 µM)			N#Cc1cccc(CN2CCN(CCO)CC2)c1
3.86	≤ 4.74 mL/min/kg	45 mL/min/kg	50.7 µg/mL (≈ 193 µM)			Cc1cc(NC(=O)CCc2c(C)nn(C)c2C)no1
6.55	373 mL/min/kg	704 mL/min/kg	16.6 µg/mL (≈ 31.6 µM)			Cc1ccc(-n2nc(C(C)(C)C)cc2NC(=O)Nc2ccc(OCCN3CCOCC3)c3ccccc23)cc1
0.823	≤ 4.74 mL/min/kg	≤ 10.7 mL/min/kg	50 µg/mL (≈ 213 µM)			CNC(=O)CC1CCN(c2ncccn2)CC1
49.4	≤ 4.74 mL/min/kg	≤ 10.7 mL/min/kg	34.8 µg/mL (≈ 125 µM)			CCN(C(=O)CN1CCNC(=O)C1)c1ccc(F)cc1
1.6	72.8 mL/min/kg	571 mL/min/kg	2.35 µg/mL (≈ 5.88 µM)			O=C(c1ccc2[nH]ccc2c1)N1CCCC(c2cccc(-c3ccc(F)cc3)n2)C1 (stereo unspecified)
	76.4 mL/min/kg	1010 mL/min/kg				Cc1cc(CSCc2ccc(C#N)cc2)no1
2.09	≤ 4.74 mL/min/kg	51.8 mL/min/kg	31 µg/mL (≈ 99.7 µM)			O=C(Cc1ccc(Cl)c(Cl)c1)N1CC(n2ccnn2)C1

More lines, now with the values behind:

SMILES	MDR1-MDCK efflux ratio	intrinsic clearance, human liver microsomes	intrinsic clearance, rat liver microsomes	aqueous solubility	fraction unbound, human plasma	fraction unbound, rat plasma
Cc1cc(C)n(-c2cc(Nc3ccccc3C)ncn2)n1	0.489	59.7 mL/min/kg	286 mL/min/kg	1.74 µg/mL (≈ 6.23 µM)		
Cn1nc(-c2cc(F)cc(F)c2)cc1N	0.607	43.8 mL/min/kg	48.7 mL/min/kg			
O=C(N[C@@H](COc1ccc2[nH]c(=O)[nH]c2c1)c1ccccc1)c1cccn(Cc2ccc(F)c(F)c2)c1=O		53.2 mL/min/kg	383 mL/min/kg			
O/N=C1/CCCc2c1cnc1ncnn21	1.67	≤ 4.74 mL/min/kg	≤ 10.7 mL/min/kg			
Cc1noc(C)c1N(C)CCn1cncn1		≤ 4.74 mL/min/kg	38.4 mL/min/kg			
O=c1c2ccccc2cnn1Cc1cccc(OCC(F)(F)F)c1	35.9	≤ 4.74 mL/min/kg	51.3 mL/min/kg			
Cc1cc(C)nc(NCc2cnc(C)c(C)c2)n1	0.622	12.5 mL/min/kg	162 mL/min/kg	13.3 µg/mL (≈ 54.9 µM)		
CC(=O)Nc1nc(-c2c(C)cc(C)cc2C)cs1	0.559	24.9 mL/min/kg	2360 mL/min/kg	19.2 µg/mL (≈ 73.7 µM)		
CCC(=O)Nc1cccc(Oc2nc(Nc3ccc(N4CCN(C)CC4)cc3OC)ncc2Cl)c1	14	15.9 mL/min/kg	238 mL/min/kg			
O=C(Nc1cccnc1)c1ccccc1Cc1ccccc1	0.612	33.9 mL/min/kg	461 mL/min/kg	70.5 µg/mL (≈ 245 µM)		
Nc1ncnc2ccc(-c3ccnc(F)c3)nc12	0.726	≤ 4.74 mL/min/kg	≤ 10.7 mL/min/kg			
O=C(Nc1ccccc1-n1ccnc1)c1cccs1	0.74	11 mL/min/kg	39.2 mL/min/kg	77.2 µg/mL (≈ 287 µM)		
CC(C)[C@H]1C(=O)N[C@H](CO)Cc2cc(NC(=O)/C=C/C=C/c3ccc(C(F)(F)F)cc3)ccc2N1C	55.9	497 mL/min/kg	439 mL/min/kg			
CCc1cc(NC(=O)Cc2c(C)nc3nc(SC)nn3c2C)[nH]n1				15.8 µg/mL (≈ 45.8 µM)		
O=[N+]([O-])c1ccc(S(=O)(=O)Nc2cccc(-c3nc4ccccc4[nH]3)c2)cc1		21.1 mL/min/kg	993 mL/min/kg			
CN(C)c1ccc2c(c1)Sc1cc(N(C)C)ccc1N2	6.59	31.8 mL/min/kg	153 mL/min/kg			
O=C(O)CCn1c2ccccc2c2ccccc21	0.809	≤ 4.74 mL/min/kg	11.4 mL/min/kg	52 µg/mL (≈ 217 µM)		
CSCc1csc(NC(C)=O)n1	0.631	19.2 mL/min/kg	248 mL/min/kg	27.9 µg/mL (≈ 138 µM)		
Cc1nsc(NCc2cncs2)n1	0.684	≤ 4.74 mL/min/kg	16.8 mL/min/kg			
CC(=O)N1CCCN(Cc2c(C)nn(C)c2Cl)CC1	3.19	11.6 mL/min/kg	43.7 mL/min/kg	41.1 µg/mL (≈ 144 µM)		
CC(C)c1noc(-c2ccc(N)cc2)n1		47.1 mL/min/kg	158 mL/min/kg			
COc1cc(CNc2nnn[nH]2)cc(Br)c1OCc1ccc(Cl)cc1	4.03	10.5 mL/min/kg	74.5 mL/min/kg	1.88 µg/mL (≈ 4.43 µM)		
Clc1ccc2[nH]c(COc3ccccc3)nc2c1		27.9 mL/min/kg	338 mL/min/kg	29.5 µg/mL (≈ 114 µM)		
CCc1c(N)cnn1-c1ccccc1C	0.677	8.11 mL/min/kg	165 mL/min/kg	37.1 µg/mL (≈ 185 µM)		
COc1ccc(C2=N/C(=C/c3cc4ccccc4n3C(C)=O)C(=O)O2)cc1				2.34 µg/mL (≈ 6.49 µM)		
O=c1c(-c2ccc(F)cc2)c(-c2ccncc2)[nH]n1-c1ccc(Cl)cc1	1.46	≤ 4.74 mL/min/kg	≤ 10.7 mL/min/kg	21.8 µg/mL (≈ 59.6 µM)		
Cn1cc(-c2ccc3nnc(C(F)(F)c4ccc5ncccc5c4)n3n2)cn1	9.46	≤ 4.74 mL/min/kg	59.2 mL/min/kg	43 µg/mL (≈ 114 µM)		
COc1cc2c(cc1OC)[C@@H]1CC(=O)[C@@H](CC(C)C)CN1CC2	0.721	57.8 mL/min/kg	330 mL/min/kg			
